Results on 17 compounds are retold here after patent publication US11485728B2, “Small molecules for the treatment of autoimmune diseases and cancer” (Athos Therapeutics, Inc., priority 2020, dated 2022).

A value given as a limit tells only on which side of the number the result lay.

Experiment [1] concerns the target T1, CYP1A2 (Homo sapiens, UniProt P05177).
T1 construct: from tissue; host or cells: pooled human liver microsomes
T1 sequence (P05177 1-516): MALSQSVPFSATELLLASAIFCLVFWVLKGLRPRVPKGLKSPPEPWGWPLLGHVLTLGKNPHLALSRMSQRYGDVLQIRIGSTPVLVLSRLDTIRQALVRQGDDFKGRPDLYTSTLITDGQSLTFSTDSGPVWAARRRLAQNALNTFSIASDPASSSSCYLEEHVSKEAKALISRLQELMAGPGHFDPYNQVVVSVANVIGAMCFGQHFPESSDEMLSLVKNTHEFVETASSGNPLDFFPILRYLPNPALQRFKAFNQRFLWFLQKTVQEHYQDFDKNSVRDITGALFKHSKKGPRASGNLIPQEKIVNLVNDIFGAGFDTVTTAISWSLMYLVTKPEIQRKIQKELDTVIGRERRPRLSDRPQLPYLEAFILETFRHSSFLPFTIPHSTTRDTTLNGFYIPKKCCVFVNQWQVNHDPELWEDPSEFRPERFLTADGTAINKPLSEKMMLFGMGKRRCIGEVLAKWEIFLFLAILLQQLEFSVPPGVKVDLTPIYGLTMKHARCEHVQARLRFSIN
Briefly: CYP-direct inhibition, CYP1A2. The class given is in vitro ADME. To be noted: human liver microsome; substrate ethoxy-resorufin; read-out: IC50 CYP-1A2. The procedure:
(§1) Many drugs inhibit cytochrome P450 enzymes to cause clinically significant changes in the pharmacokinetics of other drugs. In vitro cytochrome P450 inhibition, can provide crucial information in evaluating potential clinical drug-drug interactions and is useful for focusing in vivo tests to areas of concern. The cytochrome P450 inhibition assay was developed by preparing a working cocktail solution consisting of six probe substrates 10 μM ethoxy-resorufin (CYP1A2), 100 μM rosiglitazone (CYP2C8), 50 μM diclofenac (CYP2C9), 300 μM S-mephenytoin (CYP2C19), 50 μM dextromethorphan (CYP2D6), and 20 μM midazolam (CYP3A4). A mixture solution consists of 140 uL of 0.286 mg/mL of pooled human liver microsome working solution and 20 uL working solutions of test articles, standard control inhibitors, or positive control placebo and 20 uL of substrate cocktail mixture working solution was prepared. The mixture solution was pre-warm in a gentle shaking bath at 37±2° C. for 5 minutes. The enzymatic reaction started by adding 20 uL of NRS working solution to the mixture solution and incubated for 10 minutes at 37±2° C. To stop the reaction, an addition of 400 μL cold stop solution (acetonitrile containing 50 ng/mL Tolbutamide as an internal standard (I.Std.) was added to the mixture solution. The final concentration of test article, inhibitors, substrates, and cofactors are noted in Table 0.1 below. Two individual samples were prepared for each test compound. The extracted samples were vortexed and then centrifuged at 4500 rpm for 7 minutes using Eppendorf Centrifuge 5910R. 200 uL of supernatant was diluting with 200 uL of 50% Methanol into 96-DW plate for LC/MS/MS analysis
(§2) Concentration-response plots are used to determine the effects of an inhibitor on an enzymatic reaction. A typical concentration-response plot provides fractional activity (Y axis) is plotted as a function of log inhibitor concentration (X axis). The data are fitted using a standard Sigmoidal dose-response equation which is also called a […] logistic equation. The concentration of compound that results in 50% inhibition of maximal activity is termed as the IC50 (inhibitor concentration yielding 50% inhibition). IC50 value is calculated using Prism GraphPad software, version 9. […].
(§3) Cytochrome P450 inhibition of a drug is a key factor in determining pharmacokinetic drug-drug interactions. The objective of this study was to evaluate the inhibition potential of G9a inhibitors on six (6) major human cytochrome P450 enzymes, including CYP1A2, CYP2C8, CYP2C9, CYP2C19, CYP2D6, and CYP3A4. Inhibition was determined by using a substrate cocktail and analyzing the rate of specific metabolites formation. The cytochrome P450 inhibition assay was developed using a cocktail consisting of six (6) probe substrates ethoxy-resorufin (CYP1A2), rosiglitazone (CYP2C8), diclofenac (CYP2C9), S-mephenytoin (CYP2C19), dextromethorphan (CYP2D6), and midazolam (CYP3A4). The cocktail was incubated in human liver microsome with NADPH regenerating system (NRS) in a shaking bath at 37±2° C. The formation of specific metabolites was monitored by LC/MS/MS. Test compound was added to the cocktail-liver microsome mixture at varying concentrations and its effect on cytochrome P450 activity was determined by analyzing the rate of specific metabolite formation. The percent inhibition was calculated and plotted with reference to the concentration, and the IC50 value for inhibition was derived by fitting the data with a using log(inhibitor) vs. normalized response with variable slope least squares fit by Graphpad Prism® software. […].
(In general: Liver microsomes are vesicles of endoplasmic reticulum, rich in cytochrome P450 enzymes.)

Experiment [2] deals with T2, CYP2C8 (Homo sapiens, UniProt P10632).
T2 construct: from tissue; host or cells: pooled human liver microsomes
T2 sequence (P10632 1-490): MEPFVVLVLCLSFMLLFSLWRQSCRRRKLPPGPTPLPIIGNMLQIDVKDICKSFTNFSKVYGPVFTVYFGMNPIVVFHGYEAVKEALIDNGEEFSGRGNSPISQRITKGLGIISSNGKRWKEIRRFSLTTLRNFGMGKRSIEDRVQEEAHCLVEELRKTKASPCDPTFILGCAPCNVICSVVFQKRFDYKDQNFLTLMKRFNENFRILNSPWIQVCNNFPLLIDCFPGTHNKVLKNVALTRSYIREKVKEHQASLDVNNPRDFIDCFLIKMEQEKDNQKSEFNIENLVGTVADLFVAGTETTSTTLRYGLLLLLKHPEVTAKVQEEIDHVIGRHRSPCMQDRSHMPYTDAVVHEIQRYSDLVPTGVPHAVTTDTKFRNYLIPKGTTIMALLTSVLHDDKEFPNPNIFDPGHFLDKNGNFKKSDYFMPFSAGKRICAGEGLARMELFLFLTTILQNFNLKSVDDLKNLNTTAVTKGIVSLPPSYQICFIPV
Description: CYP-direct inhibition, CYP2C8. The format is in vitro ADME. The procedure: as §1, §2, §3

Consider `COc1cc2c(NC3CCS(=O)(=O)CC3)nc(N3CCC(F)(F)CC3)nc2cc1OCCCN1CCCC1` [Compound 1, 4-((2-(4,4-difluoropiperidin-1-yl)-6-methoxy-7-(3-(pyrrolidin-1-yl)propoxy)quinazolin-4-yl)amino)tetrahydro-2H-thiopyran 1,1-dioxide], for which the values for the IC50 in experiment [1] and in experiment [2] were more than 100 µM and 89.1 µM, respectively.
Take `COc1cc2c(NC3CCOCC3)nc(N3CCC(F)(F)CC3)nc2cc1OCCCN1CCCC1` [Compound 2, 2-(4,4-difluoropiperidin-1-yl)-6-methoxy-7-(3-(pyrrolidin-1-yl)propoxy)-N-(tetrahydro-2H-pyran-4-yl)quinazolin-4-amine]: the IC50 (commonly the concentration that inhibits the measured activity by half) in experiment [1] was more than 100 µM; in experiment [2] it was 20.4 µM.
In the case of `COCCN1CCC(Nc2nc(N3CCC(F)(F)CC3)nc3cc(OCCCN4CCCC4)c(OC)cc23)CC1` [Compound 3, 2-(4,4-difluoropiperidin-1-yl)-6-methoxy-N-(1-(2-methoxyethyl)piperidin-4-yl)-7-(3-(pyrrolidin-1-yl)propoxy)quinazolin-4-amine], the IC50 in experiment [1] and in experiment [2] was more than 100 µM each time.
Turning to `COCCNc1nc(N2CCC(F)(F)CC2)nc2cc(OCCCN3CCCC3)c(OC)cc12` [Compound 4, 2-(4,4-difluoropiperidin-1-yl)-6-methoxy-N-(2-methoxyethyl)-7-(3-(pyrrolidin-1-yl)propoxy)quinazolin-4-amine], the IC50 is more than 100 µM in experiment [1] and 27.4 µM in experiment [2].
On to `COc1cc2c(NCC3CCN(C)CC3)nc(N3CCC(F)(F)CC3)nc2cc1OCCCN1CCCC1` [Compound 5, 2-(4,4-difluoropiperidin-1-yl)-6-methoxy-N-((1-methylpiperidin-4-yl)methyl)-7-(3-(pyrrolidin-1-yl)propoxy)quinazolin-4-amine], for which the IC50 in experiment [1] and in experiment [2] was more than 100 µM in each case.
For the compound `COc1cc2c(Nc3ccncc3)nc(N3CCC(F)(F)CC3)nc2cc1OCCCN1CCCC1` [Compound 7, 2-(4,4-difluoropiperidin-1-yl)-6-methoxy-N-(pyridin-4-yl)-7-(3-(pyrrolidin-1-yl)propoxy)quinazolin-4-amine], the values for the IC50 in experiment [1] and in experiment [2] were more than 100 µM and 75.7 µM, respectively.
The corresponding values for `COc1cc2c(NC3CCNCC3)nc(N3CCC(F)(F)CC3)nc2cc1OCCCN1CCCC1` [Compound 8, 2-(4,4-difluoropiperidin-1-yl)-6-methoxy-N-(piperidin-4-yl)-7-(3-(pyrrolidin-1-yl)propoxy)quinazolin-4-amine] are more than 100 µM and more than 100 µM.
Regarding `COc1cc2c(NCC(N)=O)nc(N3CCC(F)(F)CC3)nc2cc1OCCCN1CCCC1` [Compound 9, 2-((2-(4,4-difluoropiperidin-1-yl)-6-methoxy-7-(3-(pyrrolidin-1-yl)propoxy)quinazolin-4-yl)amino)acetamide], the IC50 in experiment [1] and in experiment [2] was more than 100 µM in each case.
Regarding `COc1cc2c(NC3COC3)nc(N3CCC(F)(F)CC3)nc2cc1OCCCN1CCCC1` [Compound 11, 2-(4,4-difluoropiperidin-1-yl)-6-methoxy-N-(oxetan-3-yl)-7-(3-(pyrrolidin-1-yl)propoxy)quinazolin-4-amine], the 50% inhibitory concentration (IC50) in experiment [1] was more than 100 µM; in experiment [2], 16 µM.
In the case of `COc1cc2c(NC3CCS(=O)(=O)CC3)nc(N3CCCC3)nc2cc1OCCCN1CCCC1` [Compound 80, 4-((6-methoxy-2-(pyrrolidin-1-yl)-7-(3-(pyrrolidin-1-yl)propoxy)quinazolin-4-yl)amino)tetrahydro-2H-thiopyran 1,1-dioxide], the 50% inhibitory concentration (IC50) in experiment [1] is more than 100 µM; in experiment [2] it was 23.4 µM.
The corresponding values for `COc1cc2c(NC3CCS(=O)(=O)CC3)nc(N3CCOCC3)nc2cc1OCCCN1CCCC1` [Compound 102, 4-((6-methoxy-2-morpholino-7-(3-(pyrrolidin-1-yl)propoxy)quinazolin-4-yl)amino)tetrahydro-2H-thiopyran 1,1-dioxide] are more than 100 µM and 60.6 µM.
Consider `COc1cc2c(NC3CCS(=O)(=O)CC3)nc(N3CCS(=O)(=O)CC3)nc2cc1OCCCN1CCCC1` [Compound 103, 4-(4-((1,1-dioxidotetrahydro-2H-thiopyran-4-yl)amino)-6-methoxy-7-(3-(pyrrolidin-1-yl)propoxy)quinazolin-2-yl)thiomorpholine 1,1-dioxide], for which the half-inhibitory concentration (IC50) in experiment [1] and in experiment [2] was more than 100 µM each time.
On to `COc1cc2c(NC3CCS(=O)(=O)CC3)nc(N3CCN(C)CC3)nc2cc1OCCCN1CCCC1` [Compound 109, 4-((6-methoxy-2-(4-methylpiperazin-1-yl)-7-(3-(pyrrolidin-1-yl)propoxy)quinazolin-4-yl)amino)tetrahydro-2H-thiopyran 1,1-dioxide], for which the half-inhibitory concentration (IC50) in experiment [1] and in experiment [2] was more than 100 µM each time.
As to `COc1cc2c(NC3CCS(=O)(=O)CC3)nc(N3CCCN(C)CC3)nc2cc1OCCCN1CCCC1` [Compound 110, 4-((6-methoxy-2-(4-methyl-1,4-diazepan-1-yl)-7-(3-(pyrrolidin-1-yl)propoxy)quinazolin-4-yl)amino)tetrahydro-2H-thiopyran 1,1-dioxide], the half-maximal inhibitory concentration (IC50) in experiment [1] and in experiment [2] was more than 100 µM each time.
Regarding `COc1cc2c(Nc3ccncc3)nc(-n3ccnc3)nc2cc1OCCCN1CCCC1` [Compound 130, 2-(1H-imidazol-1-yl)-6-methoxy-N-(pyridin-4-yl)-7-(3-(pyrrolidin-1-yl)propoxy)quinazolin-4-amine], the values for the IC50 in experiment [1] and in experiment [2] were 10.4 µM and 4.66 µM, respectively.
For the compound `COc1cc2c(NC3CCN(C(C)C)CC3)nc(-n3ccnc3)nc2cc1OCCCN1CCCC1` [Compound 156, 2-(1H-imidazol-1-yl)-N-(1-isopropylpiperidin-4-yl)-6-methoxy-7-(3-(pyrrolidin-1-yl)propoxy)quinazolin-4-amine], the 50% inhibitory concentration (IC50) in experiment [1] and in experiment [2] was more than 100 µM throughout.
For `COc1cc2c(NC3CCN(C(C)C)CC3)nc(-n3cccn3)nc2cc1OCCCN1CCCC1` [Compound 157, N-(1-isopropylpiperidin-4-yl)-6-methoxy-2-(1H-pyrazol-1-yl)-7-(3-(pyrrolidin-1-yl)propoxy)quinazolin-4-amine], the half-inhibitory concentration (IC50) in experiment [1] and in experiment [2] was more than 100 µM throughout.
